Blank lines part the entries; values can stand above or below the molecule they belong to.
Format: physicochemical
Source text: Each of the sorbitan esters is capable of solubilizing up to 100 g per liter of neat propyl magnolol or butyl magnolol. In certain embodiments, the amount of sorbitan ester is at least 10 times the weight of the propyl magnolol or butyl magnolol in the composition.
Polysorbate 80 is capable of solubilizing up to 50 g per liter of neat isopropyl magnolol or isobutyl magnolol. In certain embodiments, the amount of polysorbate 80 is at least 20 times the weight of the isopropyl magnolol or isobutyl magnolol in the composition. It was surprising that polysorbate 80 was able to solubilize these analogs. Isobutyl magnolol is not soluble in polysorbate 20, polysorbate 40, or polysorbate 85.
Polysorbate 20 is capable of solubilizing up to 100 g per liter of neat isopropyl magnolol. In certain embodiments, the amount of polysorbate 20 is at least 10 times the weight of the isopropyl magnolol in the composition. It was surprising that polysorbate 20 was able to solubilize these analogs. Isopropyl magnolol is only soluble up to 10 g per liter in polysorbate 40 or polysorbate 85.
It was surprising that these sorbitan esters were capable of solubilizing these analogs.

Compound: CCCCc1ccc(O)c(-c2cc(CCCC)ccc2O)c1 [butyl magnolol, 5,5′-di-n-butylbiphenyl-2,2′-diol]
amount of neat analog that the sorbitan ester is capable of solubilizing: up to 100 g per liter

amount of neat analog that polysorbate 80 is capable of solubilizing: up to 50 g per liter
solubility in polysorbate 20 (in words): not soluble
solubility in polysorbate 40 (in words): not soluble
Compound: CC(C)Cc1ccc(O)c(-c2cc(CC(C)C)ccc2O)c1 [isobutyl magnolol, 5,5′-di-isobutylbiphenyl-2,2′-diol]

amount of neat analog that polysorbate 20 is capable of solubilizing: up to 100 g per liter
amount of neat analog that polysorbate 80 is capable of solubilizing: up to 50 g per liter
solubility in polysorbate 40: up to 10 g per liter
solubility in polysorbate 85: up to 10 g per liter
Compound: CC(C)c1ccc(O)c(-c2cc(C(C)C)ccc2O)c1 [isopropyl magnolol, 5,5′-di-isopropylbiphenyl-2,2′-diol]

amount of neat analog that the sorbitan ester is capable of solubilizing: up to 100 g per liter
Compound: CCCc1ccc(O)c(-c2cc(CCC)ccc2O)c1 [propyl magnolol, 5,5′-di-n-propylbiphenyl-2,2′-diol]

From patent publication US9414587B2, “Solubilized magnolol analogs” (Cologne-Palmolive Company, priority 2011, dated 2016)
